In patent US5442111A, “3,5-di-tetriary-4-butyl-4-hydroxyphenyloxy- or tioalkylene N-hydroxyamides, N-hydroxythioamides, N-hydroxyureas, and N-hydroxythioureas as 5-lipoxygenase inhibitors” (Warner-Lambert Company, priority 1991, dated 1995):

Test system: 5-lipoxygenase
Assay: ARBL whole cell 5-lipoxygenase assay (LTB4 formation in RBL-1 cells stimulated with calcium ionophore A23187, RIA)
Assay type: cell-based
Conditions: @ 10^-6 (concentration unit not given); rat RBL-1 whole cells, A23187 5 μM, 10 min preincubation
Method: ARBL WHOLE CELL 5-LIPOXYGENASE ASSAY
The rat basophilic leukemia cell line (RBL-1) was obtained from the American Type Culture Collection (Rockville, Md.).
A radioimmunoassay (RIA) kit of LTB was obtained from Amersham (Arlington Heights, Ill.) and Seragen (Boston, Mass.), respectively.
RBL-1 cells are grown in suspension culture in Eagle's minimum essential medium supplemented with 12% fetal bovine serum at 37° C. in an incubator supplied with air-5% carbon dioxide. Cells are harvested by centrifugation. They are washed with cold phosphate buffered saline pH 7.4 (PBS; NaCl, 7.1 g; NaHPO, 1.15 g; KHPO, 0.2 g; and KCl, 0.2 g/l). Cells are finally suspended in PBS containing 1.0 mM calcium at a density of […] cells/ml. Cells are incubated with and without test agent (in DMSO) (1% DMSO is without effect on arachidonic acid metabolism) for ten minutes at room temperature. Calcium ionophore A23187 (5 μM) is added and cells are incubated for seven minutes at 37° C. The reaction is stopped by chilling the tubes on ice for ten minutes. Cells are separated by centrifugation and the supernatant is stored at -20°. Aliquots (100 μl) are analyzed for LTB using the radioimmunoassay kit as provided by the supplier.
The following table contains biochemical data obtained from this whole cell assay as a percentage of inhibition.

| SMILES | ARBL @ 10^-6, % inhibition for LTB4 [%] |
| --- | --- |
| CNC(=S)N(O)C(C)CSc1cc(C(C)(C)C)c(O)c(C(C)(C)C)c1 (centres unmarked) [Example 1, N-[2-[[3,5-Bis(1,1-dimethylethyl)-4-hydroxyphenyl]thio]-1-methylethyl]-N-hydroxy-N'-methyl Thiourea] | 100 |
| CC(CSc1cc(C(C)(C)C)c(O)c(C(C)(C)C)c1)N(O)C(N)=O (centres unmarked) [Example 2, N-[2-[[3,5-Bis(1,1-dimethylethyl)-4-hydroxyphenyl]thio]-1-methylethyl]-N-hydroxy Urea] | 100 |
